Earlier results, collected in US8236331B2, “Cosmetic cooling composition” (Coty Deutschland GmbH, priority 2004, dated 2012).

Conditions: WO 03/007909, no period of time specified

**Q.** With `CCCCCCCCCCCCCCCC(=O)OC` [methyl palmitate] as the compound, how does the “cooling effect as described” value read?
**A.** long-lasting
